Assay results: PubChem BioAssay (NCI)
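Grown in 96-well plates, cells were treated for 48 hours with each compound at five concentrations. Insufficient inhibition: endpoint recorded as highest concentration tested. The concentration for 50% growth inhibition is given as GI50. At the TGI there is no net growth.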

Tests used:
Assay in all cases: NCI anticancer screen, dose series, 48 h
PC-3 prostate = tested on: PC-3 prostate
SN12C renal = tested on: SN12C renal
DU-145 prostate = tested on: DU-145 prostate
OVCAR-3 ovarian = tested on: OVCAR-3 ovarian
K-562 leukemia = tested on: K-562 leukemia
SF-295 CNS = tested on: SF-295 CNS
T-47D breast = tested on: T-47D breast
OVCAR-8 ovarian = tested on: OVCAR-8 ovarian
SR leukemia = tested on: SR leukemia
CAKI-1 renal = tested on: CAKI-1 renal

Structure (SMILES)	TGI (PC-3 prostate) [µM]	TGI (SN12C renal) [µM]	TGI (DU-145 prostate) [µM]	TGI (OVCAR-3 ovarian) [µM]	TGI (K-562 leukemia) [µM]	TGI (SF-295 CNS) [µM]	TGI (T-47D breast) [µM]	TGI (OVCAR-8 ovarian) [µM]	TGI (SR leukemia) [µM]	TGI (CAKI-1 renal) [µM]	GI50 (PC-3 prostate) [µM]	GI50 (SN12C renal) [µM]	GI50 (DU-145 prostate) [µM]	GI50 (SR leukemia) [µM]	GI50 (OVCAR-3 ovarian) [µM]	GI50 (K-562 leukemia) [µM]	GI50 (T-47D breast) [µM]	GI50 (CAKI-1 renal) [µM]
CN(C)c1cc[n+](-c2nc(/N=C(\[O-])C(F)(F)F)nc3c2ncn3C2CC(O)C(CO)O2)cc1 (centres undefined)	> 100	> 100	> 100	> 100	> 100	> 100	> 100	> 100										
O=C(OCC(Cl)(Cl)Cl)O[C@@H]1CCCC1(c1ccccc1)c1ccccc1	> 100	> 100	> 100		> 100	> 100	> 100		> 100	> 100								
COc1cc(C2c3cc4c(cc3OC(NCCO)C2C)OCO4)cc(OC)c1OC (centres undefined)	> 100	> 100	> 100	0.603			> 100	> 100		> 54.3								
C[C@@H]1S[C@H](c2c(Cl)cccc2Cl)N2Cc3ccccc3N=C12	> 100	> 100	> 100	> 100	> 100	> 100	> 100		> 100	> 100								
CC1=NC(=Cc2ccc([N+](=O)[O-])cc2)C(=O)N1n1c(-c2ccccc2)nc2ccccc2c1=O	> 100	> 100	> 100		> 100	> 100	> 100	> 100	> 100	> 100								
COc1ccc(C(C2=C(O)COC2=O)c2cc3c(cc2O)OCO3)cc1OC (centres undefined)	> 100	> 100	> 100	> 100	> 100	> 100		> 100	> 100	> 100								
O=c1cnn(CCOCP(=O)(O)O)c(=O)[nH]1	> 100	> 100	> 100	> 100	> 100		> 100	> 100		> 100								
Cc1ccccc1NC(=O)Cc1csc2[n+]1C(=O)/C(=C/c1ccc([N+](=O)[O-])cc1)S2	> 100	> 100	> 100	> 100		> 100	> 100	> 100		61.8								
O=C(CCc1ccccc1)ON1C(=S)C(c2ccccc2)(c2ccccc2)N=C1Sc1ccccc1	> 100	> 100	> 100	> 100	> 100	> 100	> 100	> 100		> 100								
Oc1[nH]c2ccccc2c1/C=c1/cc2c(c(-c3ccc(F)cc3)n1)=Nc1ccccc1-2	1.88	3.88	2.03	0.591	3.55		2.13		2.49	5.05	0.317	1.38	0.422	0.306	0.233	0.435	0.501	1.29
CCOC(=O)C1=C(C)N(c2ccc(OC)cc2)C2(O)C=CC(=O)C3=C(O)c4ccccc4C(=O)C312 (centres undefined)	24.4	30.2	28.4	11.7	39.5	29.3	32.7	81.1		26.5								
Cc1c(/C=N/N(C)C)oc2c1cc(O)c1ncccc12		96.4			> 100	97.9		74.2	40.4	22.4								
NC(Cc1ccc(S(=O)(=O)O)cc1)C(=O)NC(Cc1ccc(S(=O)(=O)O)cc1)C(=O)O (centres undefined)	> 100	> 100	> 100	> 100	> 100	> 100	> 100	> 100		> 100								
CN1c2ccccc2N(C(=O)c2ccccc2)C(CC(=O)O)c2cccn21 (centres undefined)		> 100		> 100	> 100	> 100		> 100		> 100								
CC(C)C1N(C)c2ccc(Cl)cc2[C@H]2c3ccccc3CCN12 (some centres undefined)	> 100	> 100	> 100	70.3	> 100	> 100		> 100	> 100									
Cc1nc2ccccc2c(/C=C/c2ccc(Cl)cc2)c1C(=O)/C=C/c1ccc(Cl)cc1					> 100				> 100					0.609		1.28		
Cc1nc2c(=S)n(C)ncc2[nH]1	> 100	> 100		> 100	> 100	> 100	> 100	> 100		> 100								
COc1cc(-c2ccccc2N)c2cccnc2c1OC	22	17.3	10.5	16.1	20.5	7.18	13.7		7.25	10.2								
CCOC(=O)N(c1ccccc1)N(CC)C(=O)/C(C)=N/Nc1ccc([N+](=O)[O-])cc1		31.4		31.1	38.1	32.3		32.6	69.3									
O=C(CCc1ccccc1)On1c(-c2ccccc2)nc2ccccc2c1=S	56.3	> 100	> 100	> 100	> 100	> 100	> 100	64.6		> 100								
CCN(CC)c1ccc2cc(C(=O)Nc3ccccn3)c(=N)oc2c1		> 100	> 100	> 100	> 100		> 100	> 100	> 100	> 100								
O=C(NC(=S)NC(=O)c1cc(O)c(O)c(O)c1)c1cc(O)c(O)c(O)c1	39.8	53.7	63.8			46.3		44.5	> 100	44.3								
COc1ccc2c(OCc3nnc4ccc(-c5ccccc5)nn34)ccnc2c1	> 100	> 100	> 100	> 100	> 100				> 100	> 100	> 100	> 100	> 100	5.64	> 100	> 100		> 100
